The text below walks through data of paper PMC11110727, “Exploiting thiol-functionalized benzosiloxaboroles for achieving diverse substitution patterns – synthesis, characterization and biological evaluation of promising antibacterial agents” (RSC Medicinal Chemistry, 2024).

For orientation: IC50 means the concentration that inhibits the measured activity by half. As usually defined, the MBC is the lowest tested concentration that kills the bacteria rather than only halting them. Usually MIC stands for the lowest concentration found to suppress growth.

Assay [1] deals with Human normal lung fibroblasts MRC-5. The assay can be described thus: MTT-based viability (cytotoxicity) assay. Particulars: Homo sapiens, MRC5, 48 h. As to the method:
To evaluate the cytotoxic effect of the tested compounds, an MTT-based assay was performed. […] Moreover, based on available IC50 and MIC (for standard and clinical S. aureus MRSA strains) values, the selectivity index (SI) was calculated for several compounds as the IC50/MIC ratio (Table 5).[60]
MRC-5 pd30 human fibroblasts (ECACC) were cultured in MEME, Minimum Essential Medium Eagle (Merck), supplemented with 10% fetal bovine serum (Merck), 2 mM L-glutamine, antibiotics (100 U mL^−1 penicillin, 100 μg mL^−1 streptomycin, Merck) and 1% non-essential amino acids (Merck). Cells were grown in 75 cm^2 cell culture flasks (Sarstedt), in a humidified atmosphere of CO2/air (5/95%) at 37 °C. MTT-based viability assay was conducted as described previously.[26] Optical densities were measured at 570 nm using a BioTek microplate reader. All measurements were carried out in three replicates and the results expressed as a percent of viable cells versus control cells. […] The selectivity index (SI) was calculated as [drawing 30] , in accordance with previously described protocols.[60]

For a further assay, the system named is E. faecium ATCC 6057. The assay can be described thus: Antibacterial activity: MIC/MBC determination and disc-diffusion. The class given is cell-based. Particulars: Enterococcus faecium, ATCC6057, E. faecium ATCC 6057. As for the experimental part:
(§1) Direct antimicrobial activity was determined against the following standard strains: (1) Gram-positive cocci: methicillin-sensitive Staphylococcus aureus ATCC 6538P (MSSA), methicillin-resistant S. aureus subsp. aureus ATCC 43300 (MRSA), S. epidermidis ATCC 12228, Enterococcus faecium ATCC 6057, E. faecalis ATCC 29212, Bacillus subtilis ATCC 6633; (2) Gram-negative bacteria from Enterobacteriales order: Klebsiella pneumoniae ATCC 13883, Escherichia coli ATCC 25922, Enterobacter cloacae DSM 6234, Proteus mirabilis ATCC 12453, Serratia marcescens ATCC 13880; (3) Gram-negative non-fermentative rods: Acinetobacter baumannii ATCC 19606, Pseudomonas aeruginosa ATCC 27853, Stenotrophomonas maltophilia ATCC 12714, S. maltophilia ATCC 13637, Burkholderia cepacia ATCC 25416, Bordetella bronchiseptica ATCC 4617; (4) yeasts: Candida albicans ATCC 90028, C. krusei ATCC 6258, C. parapsilosis ATCC 22019, C. tropicalis (Castellani) Berkhout ATCC 750, C. tropicalis IBA 171, C. guilliermondii IBA 155, and Saccharomyces cerevisiae ATCC 9763. Moreover, 5 clinical strains of methicillin-resistant S. aureus were also included: NMI 664 K, NMI 1576 K, NMI 1712 K, NMI 1991 K, and NMI 2541 K. All strains were stored at −80 °C. Prior to testing, each bacterial strain was subcultured twice on tryptic soy agar TSA (bioMerieux) medium and yeast strains on Sabouraud dextrose agar (bioMerieux) for 24–48 h at 30 °C to ensure viability. The antimicrobial activity was evaluated as previously described[26] by the disc-diffusion method and the MIC determination assays according to the EUCAST (ref. [71] and [72]) and CLSI (ref. [53] and [73]) recommendations. Assessment of bactericidal (MBC) and fungicidal (MFC) activities was performed according to the CLSI recommendations.[54,74] The following reference agents were used: fluconazole (in the case of fungi), linezolid (for Gram-positive bacteria), and nitrofurantoin (for Gram-negative rods). The new benzosiloxaboroles were dissolved in DMSO (Sigma).

Assay [2] relates to S. aureus ATCC 43300 MRSA. Described as above. The class given is cell-based. Particulars: Staphylococcus aureus, S. aureus ATCC 43300 MRSA. As for the experimental part:
as §1

The subject of the next assay is E. faecalis ATCC 29212. The description is as above. As to conditions: Enterococcus faecalis, ATCC29212, E. faecalis ATCC 29212. The class given is cell-based. As for the experimental part: as §1
For assay [3], the system named is S. epidermidis ATCC 12228. Described as above. The class given is cell-based. Particulars: Staphylococcus epidermidis, ATCC12228, S. epidermidis ATCC 12228. As for the experimental part:
as §1

Assay [4] concerns S. aureus NMI 1712 K MRSA. The assay can be described thus: Antibacterial activity against clinical MRSA: MIC/MBC. The class given is cell-based. Particulars: Staphylococcus aureus, NMI 1712 K MRSA. As for the experimental part: as §1
In assay [5] the test system is S. aureus NMI 2541 K MRSA. The description is as above. Particulars: Staphylococcus aureus, NMI 2541 K MRSA. The class given is cell-based. As to the method: as §1
Another assay deals with S. aureus NMI 664 K MRSA. Described as above. The class given is cell-based. As to conditions: Staphylococcus aureus, NMI 664 K MRSA. As for the experimental part:
as §1

The subject of assay [6] is S. aureus NMI 1991 K MRSA. Described as above. Particulars: Staphylococcus aureus, NMI 1991 K MRSA. The class given is cell-based. As for the experimental part:
as §1

For assay [7], the system named is S. aureus NMI 1576 K MRSA. Described as above. The class given is cell-based. Particulars: Staphylococcus aureus, NMI 1576 K MRSA. As for the experimental part: as §1
In another assay the test system is S. aureus ATCC 6538P. The assay can be described thus: Antibacterial activity: MIC/MBC determination and disc-diffusion. The class given is cell-based, Staphylococcus aureus. As to conditions: S. aureus ATCC 6538P. As to the method:
as §1
(In general: In agar diffusion tests the substance spreads into inoculated agar from a disc or well.)

A further assay has as its target T1, S. aureus MRSA LeuRS (Staphylococcus aureus, UniProt P67513).
T1 construct: The LeuRS gene from MRSA (PW-71) was amplified by PCR; made in house; host or cells: E. coli BL21(DE3)pLys
The assay can be described thus: In vitro aminoacylation (enzyme inhibition) assay. The class given is biochemical. Particulars: read-out: residual activity of S. aureus MRSA LeuRS. As to the method:
We have undertaken research devoted to determining the most probable mechanism of antibacterial action. […] Considering structural similarity to benzoxaboroles we assumed that benzosiloxaboroles are active through this mechanism. Our working hypothesis was supported by the fact that benzosiloxaboroles are rather bacteriostatic than bactericidal,[26,27] which is consistent with the specificity of the OBORT mechanism. The enzyme inhibition assay was performed for compound 20 as it features high activity against S. aureus MRSA strains and the respective favorable SI = 19.5 (Table 5). […] We obtained S. aureus MRSA LeuRS in the E. coli expression system. From 400 mL culture, approximately 20 mg of 6× His tagged LeuRS (with a molecular mass of 92.3 kDa) was purified to more than 90% homogeneity, which was confirmed by sodium dodecylsulfate-polyacrylamide gel electrophoresis (SDS-PAGE; Fig. S2, ESI ^†). Next, we used an in vitro aminoacylation assay to investigate the ability of 20 to inhibit S. aureus MRSA LeuRS activity consistent with affecting the transfer of the ^14C-radiolabeled leucine to a total tRNA. […] (residual activity 30.8% at 25 μM).
The LeuRS gene from MRSA (PW-71) was amplified by PCR using the following primers: 5′-[…]-3′ and 5′-[…]-3′. The amplified leuRS was digested with BamHI and NotI and ligated into pETDuet-1 vector (Novagen) which carries an N-terminal His tag. After sequencing, the pETDuet1-leuRS plasmid was transformed into E. coli BL21(DE3)pLys cells, which were then grown overnight in 20 mL of Luria–Bertani (LB) medium containing 100 μg mL^−1 ampicillin and 30 μg mL^−1 chloramphenicol. Then the overnight culture was inoculated into 400 mL of Super Broth medium containing ampicillin and chloramphenicol at the same concentration, and the cells were grown until the OD600 reached 0.6. […] The protein concentration in the final solution was 2.86 mg mL^−1 (determined by the Bradford method and bovine serum albumin as a standard).[78] […]

[8] abbreviates: read-out: MBC (first MBC where Eagle effect).

The structures appear in SMILES notation. Values after ≈ are worked out from the molar mass of the structure shown. A value given as a limit tells only on which side of the number the result lay.

T1 sequence (P67513 whole entry): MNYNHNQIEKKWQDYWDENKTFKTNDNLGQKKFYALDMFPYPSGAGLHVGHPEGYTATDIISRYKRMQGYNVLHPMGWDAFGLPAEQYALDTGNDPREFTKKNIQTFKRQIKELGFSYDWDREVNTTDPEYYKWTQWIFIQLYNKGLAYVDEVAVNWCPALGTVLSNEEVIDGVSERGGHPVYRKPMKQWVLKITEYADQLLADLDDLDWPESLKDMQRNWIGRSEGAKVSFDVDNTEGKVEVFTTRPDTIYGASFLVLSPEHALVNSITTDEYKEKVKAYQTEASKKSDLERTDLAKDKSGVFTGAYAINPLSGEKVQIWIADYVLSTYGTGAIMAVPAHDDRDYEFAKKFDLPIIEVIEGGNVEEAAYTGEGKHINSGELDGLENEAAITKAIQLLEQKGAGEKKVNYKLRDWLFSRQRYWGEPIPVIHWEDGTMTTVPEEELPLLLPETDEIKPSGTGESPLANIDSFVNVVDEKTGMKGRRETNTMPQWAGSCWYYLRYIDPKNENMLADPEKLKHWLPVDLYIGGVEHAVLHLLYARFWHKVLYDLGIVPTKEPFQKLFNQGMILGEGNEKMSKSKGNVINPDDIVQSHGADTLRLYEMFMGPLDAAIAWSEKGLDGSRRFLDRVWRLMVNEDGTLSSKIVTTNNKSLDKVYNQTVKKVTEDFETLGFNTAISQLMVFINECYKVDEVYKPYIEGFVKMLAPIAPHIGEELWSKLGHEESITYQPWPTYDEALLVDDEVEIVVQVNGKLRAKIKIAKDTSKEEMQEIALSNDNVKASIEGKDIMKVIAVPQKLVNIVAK

As to `CC(=O)NC[C@H]1CN(c2ccc(N3CCOCC3)c(F)c2)C(=O)O1` [LIN, linezolid, reference compound], in [1], the half-maximal inhibitory concentration (IC50) is greater than 400 µg/mL. Moreover, the MBC (in the assay with E. faecium ATCC 6057; in [2] (setting [8]); with E. faecalis ATCC 29212; in assay [3]; in assay [4] (setting [8]); in assay [5] (setting [8])) was greater than 128 µg/mL throughout. Also, the minimum bactericidal concentration (MBC) in the assay on S. aureus NMI 664 K MRSA (setting [8]) is greater than 128 µg/mL; in assay [6] (setting [8]), greater than 128 µg/mL; in assay [7] (setting [8]) it was greater than 128 µg/mL; with S. aureus ATCC 6538P (Staphylococcus aureus, ATCC6538P, read-out: MBC (first MBC where Eagle effect)) it was greater than 128 µg/mL. Further, the minimal inhibitory concentration (MIC) came out at 2 µg/mL (≈ 5.93 µM) in the assay with E. faecium ATCC 6057 (read-out: MIC); 2 µg/mL (≈ 5.93 µM) in [2] (read-out: MIC); 2 µg/mL (≈ 5.93 µM) with E. faecalis ATCC 29212 (read-out: MIC); 1 µg/mL (≈ 2.96 µM) in [3] (read-out: MIC); 1 µg/mL (≈ 2.96 µM) in assay [4] (read-out: MIC); 1 µg/mL (≈ 2.96 µM) in [5] (read-out: MIC). Further, the minimum inhibitory concentration (MIC) with S. aureus NMI 664 K MRSA (read-out: MIC) was determined as 1 µg/mL (≈ 2.96 µM); in [6] (read-out: MIC), 1 µg/mL (≈ 2.96 µM); in [7] (read-out: MIC), 1 µg/mL (≈ 2.96 µM); in the assay with S. aureus ATCC 6538P (Staphylococcus aureus, ATCC6538P, read-out: MIC), 1 µg/mL (≈ 2.96 µM). For the same compound, the “diameter of inhibition zone” value in the assay with S. aureus ATCC 6538P (disc-diffusion, — = zone not observed) was found to be 25 mm.

As to `Nc1ccc(S(=O)(=O)Nc2ccc3c(c2)B(O)OC3)cc1` [PT662, reference compound], at S. aureus MRSA LeuRS, the remaining activity at 25 µM was determined as 30.8%.
